# Experimental data: patent publication US6689748B1, “Method of treating mast cell activation-induced diseases with a proteoglycan” (priority 1998, dated 2004)
# Assays:
# Type in all cases: cell-based
# [1] = system: mast cells purified from peritoneal cavities of male Sprague/Dawley rats; assay: Histamine secretion from purified rat peritoneal mast cells after saccharide preincubation and wash, stimulated with C48/80 or SP; conditions: preincubated with 10^−5 M saccharide 60 min 37° C., washed twice; for Mast Cell Secretion (% inhibition), C48/80: stimulated with 10^−5 M C48/80, n = 4; for Mast Cell Secretion (% inhibition), SP: stimulated with 10^−5 M Substance P, n = 3
# Experimental: We studied the effect of chondroitin sulfate on histamine secretion from mast cells purified from peritoneal cavities of male Sprague/Dawley rats (300g, Charles River) over 25% Metrizamide (Accurate Scientific). Mast cells were preincubated with 10^−5 M saccharide for 60 min at 37° C. followed by two washes and resuspension in saccharide-free medium prior to stimulation with 10^−5 M of the mast cell secretagogue, compound 48/80 (C48/80) or the neuropeptide Substance P (SP). As the cells were washed free of saccharide, any inhibitory effect was not due to any interference with binding of C48/80 or SP to the cell surface. Consequently, this effect is distinct from reports showing that certain monosaccharide-containing lectins inhibit C48/80-induced mast cell secretion (Matsuda, K., et al., Jpn. J. Pharmacol. 64:1, 1994).
# [2] = system: mast cells purified from 300g male Sprague/Dawley rats; assay: Histamine secretion from purified rat mast cells, 15 min preincubation, washed, C48/80 stimulation; conditions: for Mast Cell Secretion, % of Total: 15 min preincubation, washed, then C48/80 0.1 μg/ml 10 min
# Experimental: Here, we investigated the effect of the polysaccharide chondroitin sulfate and of the flavonoid quercetin on histamine secretion from mast cells purified from 300g male Sprague/Dawley rats. Mast cells were preincubated with the test compound for 15 min at 37° C. and washed twice prior to stimulation with 0.1 μg/ml of the mast cell secretagogue compound 48/80 (C48/80) for 10 min. […] A combination of these naturally occurring products available OTC could be useful for the prevention of stress-induced gastrointestinal syndromes, such as irritable bowel syndrome or inflammatory bowel disease.
# [3] = system: human leukemic mast cells; assay: Proliferation of cultured human leukemic mast cells; conditions: for Inhibition (%) of human leukemic mast cell proliferation: n = 5
# Source text: Cell viability was about 90% or better.
compound,measurement,setting,value
N[C@H]1C(O)O[C@H](CO)[C@@H](O)[C@@H]1O.O=S(=O)(O)O (stereo partly drawn) [D-Glucosamine sulfate],"Mast Cell Secretion (% inhibition), C48/80",[1],33.7 ± 1.5%
same,"Mast Cell Secretion (% inhibition), SP",[1],27.5 ± 18.1%
CC(=O)N[C@H]1C(O)O[C@H](CO)[C@@H](O)[C@@H]1O (stereo partly drawn) [N-acetyl-glucosamine],"Mast Cell Secretion (% inhibition), C48/80",[1],37.4 ± 10.5%
same,"Mast Cell Secretion (% inhibition), SP",[1],30.8 ± 6.5%
"O=c1c(O)c(-c2ccc(O)c(O)c2)oc2cc(O)cc(O)c12 [Quercetin, quercetin]","Mast Cell Secretion, % of Total",[2]; test compound 10^−6M,30.5 ± 0.5%
chondroitin sulfate,"Mast Cell Secretion (% inhibition), C48/80",[1],75.4 ± 3.6%
same,"Mast Cell Secretion (% inhibition), SP",[1],38.1 ± 12.2%
same,maximal inhibition of mast cell activation,"[2]; 10^−4 M, C48/80 stimulation",83%
same,"Mast Cell Secretion, % of Total",[2]; test compound 10^−4M,5.3 ± 1.3%
same,"Mast Cell Secretion, % of Total",[2]; test compound 10^−5M,15.3 ± 2.7%
same,"Mast Cell Secretion, % of Total",[2]; test compound 10^−6M,31.0 ± 2.9%
same,Inhibition (%) of human leukemic mast cell proliferation,"[3]; Day 3, 10^−4M",57.8 ± 13.3%
same,Inhibition (%) of human leukemic mast cell proliferation,"[3]; Day 3, 10^−5M",44.3 ± 12.7%
same,Inhibition (%) of human leukemic mast cell proliferation,"[3]; Day 3, 10^−6M",27.2 ± 12.1%
same,Inhibition (%) of human leukemic mast cell proliferation,"[3]; Day 3, 10^−7M",12.6 ± 9.6%
same,Inhibition (%) of human leukemic mast cell proliferation,"[3]; Day 4, 10^−4M",53.1 ± 8.9%
same,Inhibition (%) of human leukemic mast cell proliferation,"[3]; Day 4, 10^−5M",38.9 ± 9.1%
same,Inhibition (%) of human leukemic mast cell proliferation,"[3]; Day 4, 10^−6M",25.3 ± 9.6%
same,Inhibition (%) of human leukemic mast cell proliferation,"[3]; Day 4, 10^−7M",14.9 ± 6.9%
same,Inhibition (%) of human leukemic mast cell proliferation,"[3]; Day 5, 10^−4M",52.4 ± 13.9%
same,Inhibition (%) of human leukemic mast cell proliferation,"[3]; Day 5, 10^−5M",31.2 ± 15.8%
same,Inhibition (%) of human leukemic mast cell proliferation,"[3]; Day 5, 10^−6M",20.7 ± 15.2%
same,Inhibition (%) of human leukemic mast cell proliferation,"[3]; Day 5, 10^−7M",14.7 ± 6.8%
same,Cell viability,[3]; human leukemic mast cells cultured in the presence of chondroitin sulfate,≥ 90%
